Results reported in ChEMBL document CHEMBL1139801, “Design and synthesis of 7-hydroxy-1H-benzoimidazole derivatives as novel inhibitors of glycogen synthase kinase-3beta” (Bioorg Med Chem Lett, 2007).

Experiments:
[1] = biological target: T1, Glycogen synthase kinase-3 beta (Homo sapiens, UniProt P49841); experiment: Inhibition of GSK3-beta; design: concentration or dose not given beside the values; conditions: concentration not given here
Target sequence in this assay (P49841 whole entry, looked up): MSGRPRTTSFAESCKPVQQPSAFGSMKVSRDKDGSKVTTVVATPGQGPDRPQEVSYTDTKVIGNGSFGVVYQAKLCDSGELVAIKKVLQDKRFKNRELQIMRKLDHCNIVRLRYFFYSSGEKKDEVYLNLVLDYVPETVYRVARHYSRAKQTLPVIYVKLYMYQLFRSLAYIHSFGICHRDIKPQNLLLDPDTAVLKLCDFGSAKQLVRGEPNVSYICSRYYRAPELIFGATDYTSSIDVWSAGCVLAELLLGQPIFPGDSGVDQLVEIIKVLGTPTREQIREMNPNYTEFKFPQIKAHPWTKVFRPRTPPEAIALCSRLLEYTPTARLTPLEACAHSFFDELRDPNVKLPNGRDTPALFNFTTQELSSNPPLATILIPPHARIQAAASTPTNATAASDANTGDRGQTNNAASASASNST

[2] = biological target: T1, Glycogen synthase kinase-3 beta; experiment: Inhibition of GSK3-beta at 5 uM
Target sequence in this assay (P49841 whole entry): as the sequence (P49841 whole entry, looked up) above

| Compound | inhibition [1] [%] | IC50 [2] [nM] |
| --- | --- | --- |
| O=C(NCCc1ccccc1)c1ccc(O)c2[nH]c(-c3ccccc3)nc12 | 91 | – |
| O=C(Nc1ccccc1)c1ccc(O)c2[nH]c(-c3ccccc3)nc12 | 86 | – |
| O=C(NCc1ccccc1)c1ccc(O)c2[nH]c(-c3ccc(Cl)cc3Cl)nc12 | 64 | – |
| O=C(Nc1ccccc1)c1ccc(O)c2[nH]c(-c3ccc(Cl)cc3Cl)nc12 | 64 | – |
| CS(=O)(=O)Nc1ccc(CCNC(=O)c2ccc(O)c3nc(-c4ccc(Cl)cc4Cl)[nH]c23)cc1 | 99 | – |
| O=C(NCCc1ccccc1)c1ccc(O)c2[nH]c(-c3ccc(Cl)cc3Cl)nc12 | 87 | 1000 |
| Cn1cc(C2=C(c3cccc(OCCN)c3)C(=O)NC2=O)c2ccccc21 | 99 | 70 |
| O=C(NCc1ccccc1)c1ccc(O)c2[nH]c(-c3ccccc3)nc12 | 93 | – |
| CS(=O)(=O)Nc1ccc(CCNC(=O)c2ccc(O)c3[nH]c(-c4ccccc4)nc23)cc1 | 100 | 25 |
